# From patent US10799442B2, “Compounds useful in the treatment and/or care of the skin, hair, nails, and/or mucous membranes” (LUBRIZOL ADVANCED MATERIALS, INC., priority 2015, dated 2020)
# Tests used:
# Keratin 14 = experiment: Keratin expression in reconstructed human epidermal tissue (RHE), immunohistochemistry (Keratin 14); type: cell-based; conditions: Keratin 14 immunofluorescence, 10 μg/ml, 48 hours
# Text: The human epidermis continuously renews itself by a process of proliferation and differentiation of keratinocytes. Basal epidermal stem cells proliferate and the differentiation process begins above the basal layer, whereby the differentiating keratinocytes slowly move outward from the basal membrane, migrate through the epidermis, and undergo terminal differentiation culminating in fully differentiated dead cells on the surface. The process is a dynamic flux so that surface cells are continuously sloughed and replaced by inner cells differentiating and moving outward. […] To study the ability of the peptides of the invention to recover the basal keratinocyte state, the expression of Keratins 10 and 14 is evaluated by immunohistochemistry in a three-dimensional culture system, Reconstructed Human Epidermal Tissue (RHE), that reproduces in vitro the histological organization of human epidermis in situ. […]
# The expression of Keratins 10 and 14 is evaluated by immunohistochemistry with a specific primary antibody and a fluorescently labelled secondary antibody. […] At the end of the incubation, slides are washed with 0.2% solution of Tween 20 in PBS and are incubated with Alexa Fluor® 488 Goat anti-mouse IgG (H+L) secondary antibody (Invitrogen, green fluorescence emission dye) for 1 hour at room temperature in a dark humidified chamber. […]
# SOX2 = experiment: Modulation of stem cell markers in HEKa, Real Time PCR Arrays (SOX2 mRNA); type: cell-based, Human; conditions: 48 hours
# Method: (§1) The candidate compound is evaluated for the modulation of several stem cell markers, those transcription factors regulated by miRNA145 (SOX2, OCT4, KLF4 and MYC). Gene expression profiles are analyzed by Real Time PCR Arrays using a 96-well panel for use with SYBR® Green (BioRad) to detect mRNA expression levels of stem cell markers plus three housekeeping genes, and five controls, in Human Epidermal Keratinocytes from adult (HEKa) (Cascade Biologics).
# (§2) HEKa cells are seeded at 6.0×10^5 cells/well in 6-well plates and incubated in culture medium, Epilife with defined Growth Supplement (EDGS) (Cascade Biologics), for 24 hours at 37° C. in a water-saturated atmosphere of 95% air and 5% CO2. After 24 hours, the medium is removed and the cells are incubated with the synthetic peptide DD14024 at several concentrations in a culture medium. Cells are incubated with culture medium only and these provide the basal conditions. After 48 hours of treatment at 37° C. in a CO2 incubator, the cells are lysed directly in the wells, and RNA is purified following the protocol described on the RNeasy Mini kit (Qiagen) according to the manufacturer's protocol. After RNA elution, quantification and analysis of purity of RNA samples are performed with a biophotometer (Eppendorf). For each sample, 2 μg of high quality RNA is retrotranscribed with iScript Advanced (BioRad) in a final volume of 20 μl. The complete reaction mix is incubated in a thermal cycler (Eppendorf) at 42° C. for 30 minutes and the reaction is stopped at 85° C. for 5 minutes (?). Complementary DNA is amplified by qPCR in a real-time PCR thermocycler (BioRad) using SYBR Green Supermix (BioRad) in the 96-well panel for use with SYBR® Green (BioRad). SYBR Green binds to double-stranded DNA molecules and emits fluorescence which is quantified; the fluorescence intensity is proportional to the amount of the product in the PCR reaction. […] Fold change relative to the expression of the sample genes and reference genes is calculated using normalized expression (ΔΔ(Ct)) method using CFX Manager Software (BioRad). […]
# OCT4 = experiment: Modulation of stem cell markers in HEKa, Real Time PCR Arrays (OCT4 mRNA); type: cell-based, Human; conditions: 48 hours
# Method: as §1, §2
# MYC = experiment: Modulation of stem cell markers in HEKa, Real Time PCR Arrays (MYC mRNA); type: cell-based, Human; conditions: 48 hours
# Method: as §1, §2
substance,measurement,setting,value
"Ac-QEMRMQ-OH [DD14024, Ac-Gln-Glu-Met-Arg-Met-Gln-OH]",Fold induction respect to basal conditions (%),Keratin 14,425.83%
same,Fold induction respect to basal conditions,SOX2; 0.001 mg/ml,1.62 ± 0.18
same,Fold induction respect to basal conditions,SOX2; 0.005 mg/ml,3.00 ± 0.55
same,Fold induction respect to basal conditions,SOX2; 0.01 mg/ml,2.81 ± 0.26
same,Fold induction respect to basal conditions,OCT4; 0.001 mg/ml,1.65 ± 0.13
same,Fold induction respect to basal conditions,OCT4; 0.005 mg/ml,1.81 ± 0.28
same,Fold induction respect to basal conditions,OCT4; 0.01 mg/ml,1.71 ± 0.29
same,Fold induction respect to basal conditions,MYC; 0.001 mg/ml,0.91 ± 0.05
same,Fold induction respect to basal conditions,MYC; 0.005 mg/ml,0.65 ± 0.08
same,Fold induction respect to basal conditions,MYC; 0.01 mg/ml,0.65 ± 0.07
